According to article PMC8619914, “Development of Novel Peptides for the Antimicrobial Combination Therapy against Carbapenem-Resistant Acinetobacter baumannii Infection” (Pharmaceutics, 2021):
Where no end group is shown, it is not given here.

Tests used:
[1] = system: Acinetobacter baumannii (KCCM 40203); experiment: microbe, parasite or virus in culture; conditions: KCCM 40203, 16 h
Text: (§1) The Gram-negative bacterial strain Escherichia coli (KCTC 1682) and Gram-positive bacterial strain Staphylococcus aureus (KCTC 1621) were purchased from the Korean Collection for Type Cultures (Jeongeup, Korea). Acinetobacter baumannii (KCCM 40203) were purchased from Korea Culture Center of Microorganisms (Seoul, Korea). Additionally, five carbapenem-resistant Acinetobacter baumanii C1–C5 (CRAB C1–C5), which have the OXA-23 gene with carbapenem-resistance were collected from the patients with CRAB bacteremia, who presented symptoms and signs of infection at Korea University Anam Hospital (Seoul, Korea) (IRB registration no. 2020AN0157). The minimum inhibitory concentrations (MIC) of the AMP and antibiotics against the various bacterial strains were assessed using the serial dilution method on Muller–Hinton (MH) media, as described previously. […] Absorbance at 600 nm was measured using a SpectraMAX microplate reader (Molecular Devices, San Jose, CA, USA).
(§2) Measurement of the minimum inhibitory concentrations (MIC) was conducted to determine the effect of the hydrophobicity of each antimicrobial peptide on its antimicrobial activity. MIC was defined as the minimum concentration that killed more than 99% of bacteria; it was measured against two standard Gram-negative bacteria (E. coli and A. baumanii), five clinically isolated CRAB (C1–C5), and one Gram-positive bacteria (S. aureus).

CRAB C1 = experiment: microbe, parasite or virus in culture; conditions: MH media, 2 × 10^5 CFU·mL^−1, 37 °C, 16 h, absorbance 600 nm
Text: as §1, §2

CRAB C2 = experiment: microbe, parasite or virus in culture; conditions: MH media, 2 × 10^5 CFU·mL^−1, 37 °C, 16 h, absorbance 600 nm
Text: as §1, §2

CRAB C3 = experiment: microbe, parasite or virus in culture; conditions: MH media, 2 × 10^5 CFU·mL^−1, 37 °C, 16 h, absorbance 600 nm
Text: as §1, §2

CRAB C4 = experiment: microbe, parasite or virus in culture; conditions: MH media, 2 × 10^5 CFU·mL^−1, 37 °C, 16 h, absorbance 600 nm
Text: as §1, §2

CRAB C5 = experiment: microbe, parasite or virus in culture; conditions: MH media, 2 × 10^5 CFU·mL^−1, 37 °C, 16 h, absorbance 600 nm
Text: as §1, §2

[2] = system: Escherichia coli (KCTC 1682); experiment: microbe, parasite or virus in culture; conditions: MH media, 2 × 10^5 CFU·mL^−1, 37 °C, 16 h, absorbance 600 nm; MIC kills more than 99% of bacteria
Text: as §1, §2

[3] = system: Staphylococcus aureus (KCTC 1621); experiment: microbe, parasite or virus in culture; conditions: KCTC 1621, 16 h
Text: as §1, §2

[4] = system: Gram-negative bacterial strains; experiment: organism not typed; conditions: seven Gram-negative strains; 256 assumed for MIC > 128 and 1024 for MIC > 512 μg·mL^−1
Text: as §1
Geometric means (GM) were calculated to compare the relative antimicrobial activities of the analogs against Gram-negative bacteria. […] Next, the antibacterial mechanisms of peptides were investigated.

Substance	Minimum Inhibitory Concentration, A. baumanii [1] [µg/mL]	Minimum Inhibitory Concentration, CRAB C1 (CRAB C1) [µg/mL]	Minimum Inhibitory Concentration, CRAB C2 (CRAB C2) [µg/mL]	Minimum Inhibitory Concentration, CRAB C3 (CRAB C3) [µg/mL]	Minimum Inhibitory Concentration, CRAB C4 (CRAB C4) [µg/mL]	Minimum Inhibitory Concentration, CRAB C5 (CRAB C5) [µg/mL]	Minimum Inhibitory Concentration, E. coli [2] [µg/mL]	Minimum Inhibitory Concentration, S.aureus [3] [µg/mL]	GM (mean MIC of Gram-negative bacterial strains) [4] [µg/mL]
RWKIFKKIPKFLHSAKKA-NH2 [PapMA-2]	128	128	>128	64	>128	128	64	>128	146
RWKIFKKIPKFLHSAKKF-NH2 [PapMA]	32	32	32	16	64	32	32	64	34
RWKIFKKIPKFLHSFKKF-NH2 [PapMA-4]	8	8	8	8	16	8	16	32	10
RWKIFKKIPKFLHSWKKF-NH2 [PapMA-5]	16	16	16	16	32	16	16	32	18
RWKIFKKIPKFLHSWKKW-NH2 [PapMA-6]	8	8	8	8	16	16	16	32	11
